Values of other authors as cited in patent publication US10260097B2, “Method of using a gene expression profile to determine cancer responsiveness to an anti-angiogenic agent” (Almac Diagnostics Limited, priority 2011, dated 2019).

How the values were obtained:
rectal cancer patients = rectal cancer patients receiving bevacizumab monotherapy
ovarian cancer patients = ovarian cancer patients receiving bevacizumab monotherapy
most cancers = conditions: bevacizumab added to cytotoxic chemotherapy
renal cancer patients = renal cancer patients receiving bevacizumab monotherapy

In the case of bevacizumab, the “patients showing partial regression” value (rectal cancer patients) is given as 33%, the “patients showing partial regression” value (ovarian cancer patients) is given as 21% and the “overall survival (OS) benefit” value (most cancers) is given as “no overall survival (OS) benefit”. The “patients showing partial regression” value (renal cancer patients) was 10%.
